# Source: PubChem BioAssay AID1845200 (Molecular Pharmacology Branch, DTP, NCI, 2023)
# “And” between values parts separate entries of the source, which are not always exact repeats. Equal values may be shown once.
# Tested on: ASPS-1 complex tumor spheroids, viability
# Assay: Anticancer human tumor ASPS-1 cell line growth inhibition;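 further: spheroids exposed to agents for 7 days after 3 days of growth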;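 on viability, T/C: 100% = DMSO vehicle treated spheroids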
# Conditions: for viability, T/C: stronger effect = lower value
# Summary of the method: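 Complex tumor spheroids combined malignant cells with endothelial cells and mesenchymal stem cells. DNA-damaging drugs and DNA repair inhibitors were tested alone and in combination, at half-log dilutions down from clinical Cmax (top 10 microM if Cmax unknown), 0.25% DMSO final.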
# [1] = curve of first compound, second compound 0.003 µM
structure (smiles),measurement,setting,value
[2H]c1nc(C)nc([2H])c1-c1cc(NC[C@@H](C)c2cccc3c(C(=O)NC)ccnc23)ncn1 + COc1cc2c(cc1O)CCNC21CSC2c3c(OC(C)=O)c(C)c4c(c3C(COC1=O)N1C(O)C3Cc5cc(C)c(OC)c(O)c5C(C21)N3C)OCO4,IC50,"curve of first compound, second compound 30 pM",> 10 µM
same,IC50,"curve of first compound, second compound 94.9 pM",> 10 µM
same,IC50,"curve of first compound, second compound 0.0003 µM",> 10 µM
same,IC50,"curve of first compound, second compound 0.000949 µM",6.59 µM
same,IC50,[1],< 0.0316 µM
same,"viability, T/C","second compound 30 pM, first compound 0.0316 µM",106%
same,"viability, T/C","second compound 30 pM, first compound 0.1 µM",105%
same,"viability, T/C","second compound 30 pM, first compound 0.316 µM",102%
same,"viability, T/C","second compound 30 pM, first compound 1 µM",107%
same,"viability, T/C","second compound 30 pM, first compound 3.16 µM",102%
same,"viability, T/C","second compound 30 pM, first compound 10 µM",98.7%
same,"viability, T/C","second compound 94.9 pM, first compound 0.0316 µM",106%
same,"viability, T/C","second compound 94.9 pM, first compound 0.1 µM",102%
same,"viability, T/C","second compound 94.9 pM, first compound 0.316 µM",99%
same,"viability, T/C","second compound 94.9 pM, first compound 1 µM",98.2%
same,"viability, T/C","second compound 94.9 pM, first compound 3.16 µM",97.6%
same,"viability, T/C","second compound 94.9 pM, first compound 10 µM",99.5%
same,"viability, T/C","second compound 0.0003 µM, first compound 0.0316 µM",97.6%
same,"viability, T/C","second compound 0.0003 µM, first compound 0.1 µM",94.8%
same,"viability, T/C","second compound 0.0003 µM, first compound 0.316 µM",93%
same,"viability, T/C","second compound 0.0003 µM, first compound 1 µM",88.5%
same,"viability, T/C","second compound 0.0003 µM, first compound 3.16 µM",98%
same,"viability, T/C","second compound 0.0003 µM, first compound 10 µM",91.3%
same,"viability, T/C","second compound 0.000949 µM, first compound 0.0316 µM",78.6%
same,"viability, T/C","second compound 0.000949 µM, first compound 0.1 µM",76.5%
same,"viability, T/C","second compound 0.000949 µM, first compound 0.316 µM",71.1%
same,"viability, T/C","second compound 0.000949 µM, first compound 1 µM",66.2%
same,"viability, T/C","second compound 0.000949 µM, first compound 3.16 µM",56.2%
same,"viability, T/C","second compound 0.000949 µM, first compound 10 µM",46.2%
same,"viability, T/C","second compound 0.003 µM, first compound 0.0316 µM",18.6%
same,"viability, T/C","second compound 0.003 µM, first compound 0.1 µM",22.6%
same,"viability, T/C","second compound 0.003 µM, first compound 0.316 µM",18%
same,"viability, T/C","second compound 0.003 µM, first compound 1 µM",18.1%
same,"viability, T/C","second compound 0.003 µM, first compound 3.16 µM",11%
same,"viability, T/C","second compound 0.003 µM, first compound 10 µM",3.59%
CNCc1ccc(-c2cc(-c3nc(-c4ccc(S(=O)(=O)C(C)C)cc4)cnc3N)on2)cc1 + CC[C@@]1(O)C(=O)OCc2c1cc1n(c2=O)Cc2cc3c(CN(C)C)c(O)ccc3nc2-1,IC50,[1],0.478 µM
same,IC50,"curve of first compound, second compound 0.00949 µM",0.412 µM
same,IC50,"curve of first compound, second compound 0.03 µM",0.256 µM
same,IC50,"curve of first compound, second compound 0.0949 µM",0.0196 µM
same,IC50,"curve of first compound, second compound 0.3 µM",< 0.00949 µM
same,"viability, T/C","second compound 0.003 µM, first compound 0.00949 µM",102%
same,"viability, T/C","second compound 0.003 µM, first compound 0.03 µM",103%
same,"viability, T/C","second compound 0.003 µM, first compound 0.0949 µM",98.8%
same,"viability, T/C","second compound 0.003 µM, first compound 0.3 µM",60.8%
same,"viability, T/C","second compound 0.003 µM, first compound 0.949 µM",30.8%
same,"viability, T/C","second compound 0.003 µM, first compound 3 µM",5.94%
same,"viability, T/C","second compound 0.00949 µM, first compound 0.00949 µM",104%
same,"viability, T/C","second compound 0.00949 µM, first compound 0.03 µM",108%
same,"viability, T/C","second compound 0.00949 µM, first compound 0.0949 µM",107%
same,"viability, T/C","second compound 0.00949 µM, first compound 0.3 µM",54.5%
same,"viability, T/C","second compound 0.00949 µM, first compound 0.949 µM",30.2%
same,"viability, T/C","second compound 0.00949 µM, first compound 3 µM",5.23%
same,"viability, T/C","second compound 0.03 µM, first compound 0.00949 µM",97.1%
same,"viability, T/C","second compound 0.03 µM, first compound 0.03 µM",105%
same,"viability, T/C","second compound 0.03 µM, first compound 0.0949 µM",90.5%
same,"viability, T/C","second compound 0.03 µM, first compound 0.3 µM",41.9%
same,"viability, T/C","second compound 0.03 µM, first compound 0.949 µM",25.3%
same,"viability, T/C","second compound 0.03 µM, first compound 3 µM",10.3%
same,"viability, T/C","second compound 0.0949 µM, first compound 0.00949 µM",54.1%
same,"viability, T/C","second compound 0.0949 µM, first compound 0.03 µM",45.6%
same,"viability, T/C","second compound 0.0949 µM, first compound 0.0949 µM",41.8%
same,"viability, T/C","second compound 0.0949 µM, first compound 0.3 µM",29%
same,"viability, T/C","second compound 0.0949 µM, first compound 0.949 µM",22.4%
same,"viability, T/C","second compound 0.0949 µM, first compound 3 µM",2.96%
same,"viability, T/C","second compound 0.3 µM, first compound 0.00949 µM",44.9%
same,"viability, T/C","second compound 0.3 µM, first compound 0.03 µM",38.3%
same,"viability, T/C","second compound 0.3 µM, first compound 0.0949 µM",26.9%
same,"viability, T/C","second compound 0.3 µM, first compound 0.3 µM",23.4%
same,"viability, T/C","second compound 0.3 µM, first compound 0.949 µM",23.7%
same,"viability, T/C","second compound 0.3 µM, first compound 3 µM",7.06%
CC1COCCN1c1cc(-c2ccnn2C)c2ccnc(-c3ccn[nH]3)c2n1 (configuration not stated),"viability, T/C",compound 0.0316 µM,85.3% and 92.7% and 83.6%
same,"viability, T/C",compound 0.1 µM,60.3% and 70.7% and 69.8%
same,"viability, T/C",compound 0.316 µM,43.5% and 50.8% and 46.5%
same,"viability, T/C",compound 1 µM,37.7% and 46% and 48.2%
same,"viability, T/C",compound 3.16 µM,42.6% and 45.1% and 48%
same,"viability, T/C",compound 10 µM,39.6% and 46.7% and 44.7%
same,IC50,curve of compound,0.198 µM and 0.376 µM and 0.27 µM
